Where “and” joins values, the source holds several entries; their conditions need not be identical. Identical values can stand only once.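 A five-concentration, 48-hour dose response in 96-well plates underlies each endpoint, interpolated linearly between surrounding concentrations. At the GI50, growth is halved.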 Calls of active or inactive are those of the source. Cut-off read from the data, not from the text of the source: active = GI50 up to about 1.1 µM and inactive = higher.

Some test systems named below: SNB-19; MDA-MB-435; UACC-257; MOLT-4; HCT-15; 786-0; M14; OVCAR-4; COLO 205; DU-145; SF-295; NCI/ADR-RES; HL-60; CAKI-1; CCRF-CEM; TK-10; NCI-H226; SK-MEL-2; K562; SNB-75.
Assay in all cases: NCI-60 cell line screen, 48 h

Turning to `CCOC(=O)c1c(-c2ccc(O)c(OC)c2)c(C#N)c(=S)n(C2OC(COC(C)=O)C(OC(C)=O)C(OC(C)=O)C2OC(C)=O)c1-c1ccccc1` (stereo unspecified), the GI50 in the test on SNB-19 was > 100 µM (inactive); with MDA-MB-435, 56.2 µM (inactive) and 71 µM (inactive); with UACC-257, > 100 µM (inactive) and 62.2 µM (inactive); in the test on MOLT-4 it was 48.9 µM (inactive) and 31.9 µM (inactive); in the test on HCT-15, 98.2 µM; in the test with 786-0, 71.6 µM (inactive) and 52.5 µM (inactive). Further, the GI50 with M14 was 82.4 µM (inactive); in the test with OVCAR-4, > 100 µM (inactive); in the test on COLO 205, 43.3 µM (inactive) and 30.3 µM (inactive); in the test with DU-145 it was 38.5 µM (inactive) and 35.2 µM (inactive); with SF-295, > 100 µM (inactive); in the test on NCI/ADR-RES it was 72.1 µM (inactive). Further, the GI50 in the test with HL-60 was > 100 µM (inactive); in the test on CAKI-1, 65.2 µM (inactive); in the test on CCRF-CEM, 58.7 µM (inactive) and 45.4 µM (inactive).

With `CC(C)CC1[C@@H](OCc2ccccc2)COS(=O)N1Cc1ccccc1` (stereo partly specified), the GI50 in the test with SNB-19 was 41.7 µM (inactive); in the test on MDA-MB-435 it was 31.5 µM (inactive); in the test with TK-10, 40 µM (inactive); in the test with NCI-H226 it was 47.1 µM (inactive); in the test on SK-MEL-2 it was 31 µM (inactive); with UACC-257, 30.7 µM (inactive). Further, the GI50 was 37 µM (inactive) with MOLT-4; 39.4 µM (inactive) in the test on K562; 30.8 µM in the test with HCT-15; 31.2 µM (inactive) in the test on 786-0; 51.4 µM (inactive) with M14; 44.2 µM (inactive) in the test on OVCAR-4. The GI50 was 57 µM (inactive) in the test with COLO 205; 35.6 µM (inactive) in the test on DU-145; 46.2 µM (inactive) in the test on SF-295; 49.4 µM (inactive) in the test with NCI/ADR-RES; 21.5 µM (inactive) with SNB-75; 57.1 µM (inactive) in the test with CCRF-CEM.

Turning to `CCN(CC)c1ccc2cc(-c3nnc(-c4ccccc4O)o3)c(=O)oc2c1`, the GI50 was 9.68 µM (inactive) in the test on SNB-19; 12.9 µM (inactive) in the test with MDA-MB-435; 14.5 µM (inactive) with SK-MEL-2; 14.3 µM (inactive) in the test on UACC-257; 3.03 µM (inactive) in the test with MOLT-4; 5.96 µM (inactive) in the test with K562. Also, the GI50 is 5.75 µM in the test on HCT-15; 8.99 µM (inactive) with 786-0; 11.1 µM (inactive) in the test with M14; 6.35 µM (inactive) in the test with OVCAR-4; 7.66 µM (inactive) with COLO 205; 10.3 µM (inactive) in the test with DU-145. Besides, the GI50 was 11.1 µM (inactive) in the test on SF-295; 10.5 µM (inactive) in the test on NCI/ADR-RES; 4.56 µM (inactive) in the test with HL-60; 11.5 µM (inactive) in the test on CAKI-1; 2.37 µM (inactive) with CCRF-CEM.

Regarding `Cc1ccc(CC(=O)Nc2ccc(NC(=O)CNC(=O)/C=C/c3ccc(-c4ccccc4)cc3)cc2C(=O)c2ccccc2)cc1`, the GI50 is 4.57 µM (inactive) with SNB-19; 3.66 µM (inactive) in the test with MDA-MB-435; 2.08 µM (inactive) in the test with TK-10; 2.79 µM (inactive) in the test on NCI-H226; 13.9 µM (inactive) in the test with SK-MEL-2; 6.32 µM (inactive) with UACC-257. The GI50 in the test with MOLT-4 is 3.5 µM (inactive); in the test with K562 it was 3.33 µM (inactive); in the test on HCT-15 it was 3.69 µM; in the test with 786-0, 2.28 µM (inactive); in the test with M14 it was 4.81 µM (inactive); with COLO 205, 6.93 µM (inactive). Further, the GI50 with DU-145 was 2.49 µM (inactive); in the test with SF-295, 2.22 µM (inactive); in the test on NCI/ADR-RES it was 9.71 µM (inactive); with HL-60 it was 7.45 µM (inactive); with CAKI-1, 4.9 µM (inactive); with CCRF-CEM, 4.79 µM (inactive).

In the case of `Nc1nc(Cl)cc(NCC2(CO)CC(CCCCc3ccccc3)C2)n1` (stereo unspecified), the GI50 with SNB-19 is > 100 µM (inactive); with MDA-MB-435, 42.9 µM (inactive); in the test on TK-10, > 100 µM (inactive); in the test on NCI-H226, > 100 µM (inactive); in the test on SK-MEL-2 it was > 100 µM (inactive); in the test on UACC-257, 61.9 µM (inactive). Besides, the GI50 was 3.36 µM (inactive) in the test with MOLT-4; 2.23 µM (inactive) in the test on K562; 34.8 µM with HCT-15; 42.3 µM (inactive) in the test with 786-0; 67.6 µM (inactive) in the test with M14; > 100 µM (inactive) with OVCAR-4. Also, the GI50 in the test on COLO 205 is 27.9 µM (inactive); in the test on DU-145 it was > 100 µM (inactive); with SF-295 it was 18.2 µM (inactive); in the test on HL-60, 6.55 µM (inactive); in the test with SNB-75, 81.3 µM (inactive); with CAKI-1, 82.8 µM (inactive). The GI50 in the test with CCRF-CEM is 0.0875 µM (active).

As to `CC(O)C1(CNc2cc(Cl)nc(N)n2)CCC1` (stereo unspecified), the GI50 is > 100 µM (inactive) in the test with SNB-19; > 100 µM (inactive) in the test with MDA-MB-435; > 100 µM (inactive) in the test with TK-10; > 100 µM (inactive) with NCI-H226; > 100 µM (inactive) in the test with SK-MEL-2; 37.8 µM (inactive) in the test with UACC-257. The GI50 is > 100 µM (inactive) in the test with MOLT-4; > 100 µM (inactive) with K562; above 100 µM in the test on HCT-15; > 100 µM (inactive) with 786-0; > 100 µM (inactive) in the test with OVCAR-4; > 100 µM (inactive) in the test with DU-145. Further, the GI50 in the test on SF-295, in the test with NCI/ADR-RES, in the test with HL-60, in the test with CAKI-1 and with CCRF-CEM was > 100 µM (inactive) in each case.

As for `O=C(Nc1ccc(F)cc1)c1cc2ccc(O)cc2o/c1=N\c1cccc(F)c1`, the GI50 was 31.8 µM (inactive) in the test on MDA-MB-435; 42.2 µM (inactive) with SK-MEL-2; 33.5 µM (inactive) in the test on UACC-257; 27.9 µM (inactive) with MOLT-4; 22 µM (inactive) in the test on K562; 27.5 µM in the test with HCT-15. The GI50 with 786-0 was 39.9 µM (inactive); in the test with OVCAR-4 it was 26 µM (inactive); with COLO 205 it was > 100 µM (inactive); in the test on DU-145 it was 28.9 µM (inactive); in the test on SF-295, 43.9 µM (inactive); in the test with NCI/ADR-RES, 28.2 µM (inactive). Besides, the GI50 with HL-60 was 27.3 µM (inactive); in the test with CAKI-1, 32.7 µM (inactive); in the test on CCRF-CEM, 15.2 µM (inactive).

For `CC(=O)NC1C(OCc2ccccc2)OC(CO)C(O)C1OCC(=O)NC(C)C(=O)NC(CCC(=O)Nc1ccc2c(c1)CN1C(=O)c3ccccc3C1=N2)C(N)=O` (stereo unspecified), the GI50 with SNB-19 was > 100 µM (inactive); in the test with MDA-MB-435, > 100 µM (inactive); in the test on TK-10, > 100 µM (inactive); with SK-MEL-2 it was > 100 µM (inactive); with UACC-257, > 100 µM (inactive); with MOLT-4 it was 89.1 µM (inactive). In addition, the GI50 with K562 was > 100 µM (inactive); in the test with HCT-15 it was above 100 µM; in the test on 786-0, > 100 µM (inactive); in the test with M14 it was > 100 µM (inactive); in the test on OVCAR-4, > 100 µM (inactive); in the test on COLO 205 it was > 100 µM (inactive). The GI50 with DU-145, with SF-295, in the test with NCI/ADR-RES, with HL-60, in the test with SNB-75 and in the test on CAKI-1 was > 100 µM (inactive) each time. In the test on CCRF-CEM, the GI50 is > 100 µM (inactive).

`CC1=[N+]([O-])C2(CCCC2)N(O)C1(C)C`: the GI50 in the test on SNB-19, in the test on MDA-MB-435, with TK-10, in the test on NCI-H226, with SK-MEL-2 and with UACC-257 was > 100 µM (inactive) in each case. In addition, the GI50 was > 100 µM (inactive) in the test with K562; above 100 µM with HCT-15; > 100 µM (inactive) in the test on 786-0; > 100 µM (inactive) in the test on M14; > 100 µM (inactive) in the test on OVCAR-4; > 100 µM (inactive) in the test with COLO 205. Besides, the GI50 in the test with DU-145, with SF-295, in the test with NCI/ADR-RES, with HL-60 and in the test with CAKI-1 was > 100 µM (inactive) each time.

With `CCOC(=O)Nc1cc2c(c(N)n1)N=C(c1ccccc1)CN2`, the GI50 in the test with SNB-19 is < 0.01 µM (active); with MDA-MB-435, < 0.01 µM (active); in the test with TK-10, 10.7 µM (inactive); in the test with UACC-257 it was 12.8 µM (inactive); in the test on MOLT-4, < 0.01 µM (active); with K562, < 0.01 µM (active). Further, the GI50 in the test on HCT-15 was below 0.01 µM; in the test with 786-0 it was < 0.01 µM (active); with M14, < 0.01 µM (active); in the test with OVCAR-4 it was 28.1 µM (inactive); in the test with COLO 205, < 0.01 µM (active); in the test on DU-145, < 0.01 µM (active). The GI50 is < 0.01 µM (active) with SF-295; < 0.0001 µM (active) in the test on NCI/ADR-RES; < 0.0001 µM (active) with HL-60; < 0.01 µM (active) with SNB-75; < 0.01 µM (active) with CAKI-1; < 0.01 µM (active) with CCRF-CEM.

`C[C@@H]([C@H]1CC[C@@]2(C)[C@@H]3CC[C@@H]4C(=CC3=CC[C@]12C)CC[C@H](N(C)C)C4(C)C)N(C)C` [BUXAMINE A]: the GI50 with SNB-19, in the test with MDA-MB-435, in the test with TK-10, with NCI-H226, with UACC-257 and in the test with MOLT-4 was > 100 µM (inactive) throughout. In addition, the GI50 is > 100 µM (inactive) with K562; above 100 µM in the test with HCT-15; > 100 µM (inactive) in the test with 786-0; > 100 µM (inactive) in the test with M14; > 100 µM (inactive) in the test on OVCAR-4; > 100 µM (inactive) in the test with COLO 205. Besides, the GI50 with DU-145, in the test on SF-295, in the test with NCI/ADR-RES, in the test on HL-60, in the test on CAKI-1 and in the test with CCRF-CEM was > 100 µM (inactive) throughout.

The values are drawn from ChEMBL document CHEMBL1201862, “PubChem BioAssay data set” (2004).
